From ChEMBL document CHEMBL1201862, “PubChem BioAssay data set” (2004)
Calls of active or inactive are those of the source.

Legend:
[1] = biological target: T1, Rac GTPase-activating protein 1 (Homo sapiens, UniProt Q9H0H5); test: blockers of MgcRacGAP-driven Rac1 GTP hydrolysis – biochemical, ADP Hunter fluorescence, primary and confirmatory, confirmation (AID 624330); type: functional
T1 sequence (Q9H0H5 whole entry): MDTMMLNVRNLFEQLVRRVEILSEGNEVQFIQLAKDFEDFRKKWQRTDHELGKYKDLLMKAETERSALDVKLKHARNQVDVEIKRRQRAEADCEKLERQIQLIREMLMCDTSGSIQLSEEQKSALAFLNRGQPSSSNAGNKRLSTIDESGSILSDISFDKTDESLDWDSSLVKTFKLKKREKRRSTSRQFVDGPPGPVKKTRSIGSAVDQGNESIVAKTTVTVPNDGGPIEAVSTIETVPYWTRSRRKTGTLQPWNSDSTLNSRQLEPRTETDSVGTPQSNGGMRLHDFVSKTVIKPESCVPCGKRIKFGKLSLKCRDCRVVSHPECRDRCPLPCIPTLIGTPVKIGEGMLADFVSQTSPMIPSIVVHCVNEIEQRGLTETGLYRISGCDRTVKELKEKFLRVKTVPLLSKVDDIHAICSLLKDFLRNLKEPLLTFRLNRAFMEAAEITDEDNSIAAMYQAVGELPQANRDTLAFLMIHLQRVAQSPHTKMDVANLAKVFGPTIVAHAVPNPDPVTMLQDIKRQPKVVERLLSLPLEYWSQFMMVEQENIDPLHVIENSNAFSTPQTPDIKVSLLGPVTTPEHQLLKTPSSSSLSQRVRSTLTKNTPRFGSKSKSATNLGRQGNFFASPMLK

[2] = system: Escherichia coli; test: microbe, parasite or virus in culture
[3] = system: A-375; test: MITF: Counter assay: A375 proliferation Measured in Cell-Based System Using Plate Reader - 2084-03_Inhibitor_Dose_DryPowder_Activity. [Related pubchem assays (depositor defined):AID488944]; type: functional; settings: Homo sapiens
[4] = system: A-375; test: proliferation inhibition in MITF-low A375 cells – cell-based, cherry-pick samples, set 2, counter-screen for MITF modulator project, dose response (AID 540335); type: functional; settings: Homo sapiens
[5] = biological target: T2, Cytochrome P450 2C9 (Homo sapiens, UniProt P11712)
[6] = system: HeLa; test: ATP-based viability loss in HeLa cells – cell-based, CellTiter-Glo luminescence, cherry-pick samples, cytotoxicity control for MITF activator project, dose response (AID 540259); type: functional; settings: Homo sapiens
[7] = THP-1 cell cytotoxicity, dose response, cytotoxicity control for non-replicating M. tuberculosis project (AID 489025); type: functional
[8] = Luminescence Cell-Based Dose Retest to Confirm Inhibitors of Cancer Stem Cells. [Related pubchem assays (depositor defined):AID2717, AID2721]; type: functional; settings: Homo sapiens
[9] = HepG2 cell cytotoxicity, dose response, cytotoxicity control for non-replicating M. tuberculosis project (AID 489018); type: functional; settings: Mycobacterium tuberculosis
[10] = Vero E6 cell cytotoxicity, dose response, cytotoxicity control for non-replicating M. tuberculosis project, secondary assay (AID 492998); type: functional, VeroE6; settings: Vero C1008
[11] = biological target: T3, Microphthalmia-associated transcription factor (Homo sapiens, UniProt O75030); test: reducers of TRPM1 reporter luminescence, concentration series – cell-based, SK-MEL-5, cherry-picked, set 3, MITF inhibitor project, dose response (AID 493073); type: functional;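 further: SK-MEL-5 melanoma cells with luciferase driven by the MITF target TRPM1 promoter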
T3 sequence (O75030 whole entry): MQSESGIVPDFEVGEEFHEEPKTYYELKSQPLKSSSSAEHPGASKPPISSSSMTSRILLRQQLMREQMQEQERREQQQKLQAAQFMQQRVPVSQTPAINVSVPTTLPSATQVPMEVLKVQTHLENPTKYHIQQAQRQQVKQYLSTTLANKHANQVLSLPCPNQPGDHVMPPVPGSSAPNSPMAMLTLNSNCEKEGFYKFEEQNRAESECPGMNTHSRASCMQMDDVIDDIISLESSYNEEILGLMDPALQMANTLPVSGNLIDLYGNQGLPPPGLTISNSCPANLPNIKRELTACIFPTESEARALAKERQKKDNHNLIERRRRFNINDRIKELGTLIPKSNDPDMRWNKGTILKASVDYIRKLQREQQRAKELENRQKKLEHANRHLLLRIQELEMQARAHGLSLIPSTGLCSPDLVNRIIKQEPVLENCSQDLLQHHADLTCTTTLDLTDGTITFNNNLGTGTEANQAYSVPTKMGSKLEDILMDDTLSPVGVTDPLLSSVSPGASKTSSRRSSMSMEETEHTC

[12] = cells; type: functional
[13] = biological target: Cytochrome P450 3A4 (Homo sapiens, UniProt P08684);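 further: CYP3A4 tested as one member of a cytochrome P450 panel screen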
[14] = system: BJ; test: BJ-TERT fibroblast viability loss – cell-based, RAS-independent, luminescence, dose response (AID 1933); type: functional; settings: Homo sapiens
[15] = system: BJ; test: cells; type: functional, cell-based; settings: Homo sapiens
[16] = system: BJ; test: BJ-TERT-LT-ST fibroblast viability loss – cell-based, RAS-independent, luminescence, dose response (AID 1935); type: functional; settings: Homo sapiens;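 further: BJ fibroblasts immortalized with TERT plus LT and ST oncogenes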
[17] = DRD fibroblast viability loss – cell-based, non-viral oncogenic, luminescence, dose response (AID 1934); type: functional; settings: Homo sapiens
[18] = system: BJ; test: growth inhibition of engineered Ras-driven BJ cells – cell-based, alamar blue fluorescence, cherrypicked samples, dose response (AID 2631); type: functional; settings: Homo sapiens;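 further: confirmatory dose-response assay in RAS-dependent BJ fibroblasts engineered with TERT, LT and ST, with cytotoxicity read by fluorescence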
[19] = biological target: T4, Protein skinhead-1 (Caenorhabditis elegans, UniProt P34707); type: functional
T4 sequence (P34707 whole entry): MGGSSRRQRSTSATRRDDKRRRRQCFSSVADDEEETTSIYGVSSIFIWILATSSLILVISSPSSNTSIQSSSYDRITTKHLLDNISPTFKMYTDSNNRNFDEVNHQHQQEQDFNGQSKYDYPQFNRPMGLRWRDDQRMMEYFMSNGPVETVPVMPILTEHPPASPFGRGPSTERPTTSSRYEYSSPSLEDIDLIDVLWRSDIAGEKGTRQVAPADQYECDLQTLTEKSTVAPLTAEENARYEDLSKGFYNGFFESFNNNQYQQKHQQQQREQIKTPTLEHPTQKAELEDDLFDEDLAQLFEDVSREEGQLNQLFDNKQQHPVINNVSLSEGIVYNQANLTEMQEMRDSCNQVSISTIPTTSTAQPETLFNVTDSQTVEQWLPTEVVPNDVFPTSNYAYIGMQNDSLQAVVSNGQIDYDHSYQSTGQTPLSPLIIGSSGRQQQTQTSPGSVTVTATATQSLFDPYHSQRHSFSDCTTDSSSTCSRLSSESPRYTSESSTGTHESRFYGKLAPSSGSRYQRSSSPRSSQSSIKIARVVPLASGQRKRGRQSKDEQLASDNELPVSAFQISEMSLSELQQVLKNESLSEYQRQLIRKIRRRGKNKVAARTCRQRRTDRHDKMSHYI

[20] = biological target: Cytochrome P450 2C19 (Homo sapiens, UniProt P33261); test: Cytochrome panel assay with activity outcomes. Panel member name: p450-cyp2c19 Compounds with AC50 equal or less than 10 uM are considered active; type: functional; settings: read-out: AC50
[21] = biological target: T2, Cytochrome P450 2C9; remark: listed apart in the source
[22] = Trypanosoma cruzi growth suppression in host cells – NIH3T3 host cells, beta-gal luminescence, confirmation (AID 2044); type: functional, cell-based;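 further: intracellular parasites grown in NIH/3T3 mouse fibroblasts as host cells; luminescent beta-galactosidase reporter signal from transgenic T. cruzi replicating inside host cells; inhibitors lower the luminescence signal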
[23] = NIH3T3 cell viability loss – ATP luminescence, mouse fibroblasts, counter-screen, dose response (AID 2010); type: functional, cell-based;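 further: cells exposed to compound for about 90 hours before reading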
[24] = biological target: T5, Mannose-6-phosphate isomerase (Homo sapiens, UniProt P34949); test: MPI inhibition at elevated mannose 6-phosphate – biochemical, fluorescence intensity, high mannose 6-phosphate, primary screen (AID 1220)
T5 sequence (P34949 whole entry): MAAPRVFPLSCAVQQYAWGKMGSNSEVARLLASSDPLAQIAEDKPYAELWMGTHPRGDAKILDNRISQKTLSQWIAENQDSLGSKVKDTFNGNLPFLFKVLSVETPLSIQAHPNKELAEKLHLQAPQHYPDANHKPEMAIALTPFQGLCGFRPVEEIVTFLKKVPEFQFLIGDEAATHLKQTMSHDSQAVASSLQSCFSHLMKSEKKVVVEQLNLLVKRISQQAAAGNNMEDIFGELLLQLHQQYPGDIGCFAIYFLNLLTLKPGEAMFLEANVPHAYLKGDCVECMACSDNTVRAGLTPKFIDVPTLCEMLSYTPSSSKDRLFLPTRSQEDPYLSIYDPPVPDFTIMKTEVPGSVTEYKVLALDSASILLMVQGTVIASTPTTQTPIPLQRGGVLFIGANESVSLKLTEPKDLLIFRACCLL

[25] = biological target: T6, Coagulation factor XII (Homo sapiens, UniProt P00748); type: functional;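 further: activated factor XIIa alpha cleaving a fluorogenic AMC peptide substrate; inhibitor potency from loss of enzyme activity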
T6 sequence (P00748 whole entry): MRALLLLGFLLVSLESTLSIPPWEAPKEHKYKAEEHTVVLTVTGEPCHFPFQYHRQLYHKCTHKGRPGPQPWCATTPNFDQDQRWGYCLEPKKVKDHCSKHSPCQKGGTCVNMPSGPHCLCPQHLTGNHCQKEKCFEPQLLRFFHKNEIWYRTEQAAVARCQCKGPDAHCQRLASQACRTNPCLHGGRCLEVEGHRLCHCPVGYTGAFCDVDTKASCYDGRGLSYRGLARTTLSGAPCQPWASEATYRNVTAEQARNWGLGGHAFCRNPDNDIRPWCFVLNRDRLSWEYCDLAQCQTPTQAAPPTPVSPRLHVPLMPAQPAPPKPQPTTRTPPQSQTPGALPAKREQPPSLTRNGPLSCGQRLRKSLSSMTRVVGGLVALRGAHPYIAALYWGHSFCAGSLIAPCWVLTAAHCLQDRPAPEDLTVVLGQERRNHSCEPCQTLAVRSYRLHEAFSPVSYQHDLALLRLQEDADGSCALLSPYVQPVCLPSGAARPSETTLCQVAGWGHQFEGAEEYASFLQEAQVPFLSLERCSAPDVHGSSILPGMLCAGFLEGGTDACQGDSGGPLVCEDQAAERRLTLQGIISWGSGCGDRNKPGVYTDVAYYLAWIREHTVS

Chain of Cytochrome P450 3A4 (P08684 whole entry): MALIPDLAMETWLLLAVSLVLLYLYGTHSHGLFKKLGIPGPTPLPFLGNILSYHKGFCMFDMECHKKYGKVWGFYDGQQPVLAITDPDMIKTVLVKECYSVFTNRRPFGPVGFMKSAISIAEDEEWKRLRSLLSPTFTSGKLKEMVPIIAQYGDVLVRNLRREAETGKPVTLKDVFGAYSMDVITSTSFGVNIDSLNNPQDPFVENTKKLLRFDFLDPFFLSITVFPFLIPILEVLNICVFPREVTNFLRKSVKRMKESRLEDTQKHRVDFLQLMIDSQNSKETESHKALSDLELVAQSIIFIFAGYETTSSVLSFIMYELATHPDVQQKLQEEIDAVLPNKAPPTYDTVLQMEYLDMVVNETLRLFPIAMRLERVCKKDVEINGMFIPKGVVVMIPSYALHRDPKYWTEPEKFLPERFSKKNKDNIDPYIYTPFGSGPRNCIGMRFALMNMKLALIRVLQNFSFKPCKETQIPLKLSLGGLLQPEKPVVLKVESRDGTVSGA
T2 sequence (P11712 whole entry): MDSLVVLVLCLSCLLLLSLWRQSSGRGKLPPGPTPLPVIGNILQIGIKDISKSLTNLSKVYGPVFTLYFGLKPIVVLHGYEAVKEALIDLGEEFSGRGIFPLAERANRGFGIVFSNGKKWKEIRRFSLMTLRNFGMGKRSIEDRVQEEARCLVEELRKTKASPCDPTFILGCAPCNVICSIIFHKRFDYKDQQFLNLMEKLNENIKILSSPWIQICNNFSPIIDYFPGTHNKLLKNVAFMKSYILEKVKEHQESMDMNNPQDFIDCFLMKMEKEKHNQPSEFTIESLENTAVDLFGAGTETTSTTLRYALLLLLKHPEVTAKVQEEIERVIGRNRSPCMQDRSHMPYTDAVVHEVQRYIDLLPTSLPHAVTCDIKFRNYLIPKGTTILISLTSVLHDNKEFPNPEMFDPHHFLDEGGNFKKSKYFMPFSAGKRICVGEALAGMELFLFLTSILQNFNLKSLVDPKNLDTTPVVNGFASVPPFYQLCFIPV
Chain of Cytochrome P450 2C19 (P33261 whole entry): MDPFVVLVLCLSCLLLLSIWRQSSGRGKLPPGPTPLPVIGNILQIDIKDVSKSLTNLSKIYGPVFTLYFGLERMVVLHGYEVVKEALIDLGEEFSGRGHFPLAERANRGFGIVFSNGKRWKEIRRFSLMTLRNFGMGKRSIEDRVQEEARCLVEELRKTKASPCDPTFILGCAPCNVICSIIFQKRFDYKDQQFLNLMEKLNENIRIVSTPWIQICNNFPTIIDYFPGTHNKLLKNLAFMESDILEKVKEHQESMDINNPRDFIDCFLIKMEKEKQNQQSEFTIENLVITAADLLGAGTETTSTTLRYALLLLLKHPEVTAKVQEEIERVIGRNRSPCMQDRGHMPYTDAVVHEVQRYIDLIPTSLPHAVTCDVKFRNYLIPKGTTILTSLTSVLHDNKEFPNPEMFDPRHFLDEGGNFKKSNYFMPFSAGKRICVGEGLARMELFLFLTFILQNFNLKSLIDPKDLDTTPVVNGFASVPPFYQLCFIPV

CC(C)C(=O)Nc1ccc(Nc2ccccc2)cc1
IC50 [1]: 51.1 µM (active)
AC50 [2]: 29.9 µM (active)

O=C(NCC1CCCO1)c1cc(-c2ccc(Cl)cc2Cl)on1 (stereo not drawn)
AC50 [3]: > 11 µM (active)
AC50 [4]: > 11 µM (active)
AC50 [5]: inconclusive

Cc1ccc2c(Cl)c(C(=O)Nc3cccnc3)sc2c1
AC50 [6]: 46.7 µM (active)

CC1CCCC(NCC(O)COC(c2ccc(F)cc2)c2ccc(F)cc2)C1C (stereo not drawn)
CC50 [7]: 15.8 µM (active)
AC50 [8]: 6.35 µM (active)
CC50 [9]: 16.1 µM (active)
CC50 [10]: > 20 µM (active)
AC50 [11]: 10.8 µM (active)
IC50 [12]: 11.4 µM (active)
AC50 [4]: 20.2 µM (active)

Cc1cnc(CNc2cc(-c3ccccc3Cl)ncn2)cn1
AC50 [13]: inconclusive

COc1ccc(N/C=C/C(=O)c2cc(OC)c(OC)c(OC)c2)cc1
EC50 [14]: 0.666 µM (active)
EC50 [15]: 20.5 µM (inconclusive)
EC50 [16]: 0.441 µM (inconclusive)
EC50 [17]: 0.603 µM (active)
EC50 [18]: 0.133 µM (active)

CC(C)c1ccc(OCC(=O)N2CCN(C)CC2)c(Br)c1
AC50 [2]: 57.9 µM (active)

Clc1ccccc1/C=C/c1nc(-c2cccnc2)no1
AC50 [6]: 54.3 µM (active)
IC50 [19]: > 100 µM (inactive)

CCCC(=O)Nc1nc2nc(-c3ccccc3)cc(-c3ccccc3)n2n1
AC50 [20]: 11.2 µM (inconclusive)
AC50 [21]: 0.0112 µM (inconclusive)
AC50 [13]: inconclusive

CC(=O)/N=C(\N)Nc1nc2cc(C)ccc2o1
AC50 [3]: > 35 µM (active)
AC50 [4]: > 35 µM (active)

Cc1ccc(/C=N/NC(=O)c2cc(-c3ccncc3)nc3ccccc23)o1
EC50 [14]: 2.77 µM (active)
EC50 [15]: 37.5 µM (inconclusive)
EC50 [16]: 25.4 µM (active)
EC50 [17]: 2.27 µM (active)
EC50 [18]: 1.41 µM (active)

CCO/C(O)=C(/C)C1=NC(C)(C)Cc2ccccc21
EC50 [22]: 10.7 µM (active)
EC50 [23]: > 60 µM (not active)
IC50 [24]: 37.9 µM (active)
IC50 [25]: > 50 µM (inactive)

C/C(=N\Nc1ccccn1)c1ccc(C(C)C)cc1
AC50 [6]: 46.7 µM (active)

COc1cccc(-c2cc(O)c3cc(NC(C)=O)ccc3n2)c1
AC50 [2]: 28.2 µM (active)
